Like-named read-outs stand apart in the source and are kept apart here.
Columns and labels:
hTAS2R38 = molecular target: T1, hTAS2R38 (Homo sapiens, UniProt P59533); experiment: FLIPR assay, heterologous expression of hTAS2R38; type: cell-based
T1 construct: gene-specific primers that span the complete coding region ... contains the first 45 amino acids of the rat somatostatin type 3 receptor
T1 sequence (P59533 1-333 A49P/I296V): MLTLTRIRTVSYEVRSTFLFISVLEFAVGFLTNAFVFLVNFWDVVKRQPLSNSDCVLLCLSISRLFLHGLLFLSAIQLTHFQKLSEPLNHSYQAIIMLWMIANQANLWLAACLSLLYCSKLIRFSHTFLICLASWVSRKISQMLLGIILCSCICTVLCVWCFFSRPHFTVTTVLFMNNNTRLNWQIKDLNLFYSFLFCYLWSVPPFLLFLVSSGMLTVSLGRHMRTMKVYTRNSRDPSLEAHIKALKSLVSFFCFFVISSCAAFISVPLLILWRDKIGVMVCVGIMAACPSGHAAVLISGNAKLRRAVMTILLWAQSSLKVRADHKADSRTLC
Excerpt: These cells stably express a chimeric G protein constructed from human Gα16 and rat gustducin. Finally, we seeded the transfected cells at a density of 3×10^3 cells per well into 96-well black-wall, clear-bottom microtiter plates (Greiner).
Co-transfection of TAS2Rs with gustducin and phospholipase-Cβ2 into HEK-293 cells. Alternatively, we transfected simultaneously plasmid DNAs encoding one of the TAS2Rs, phospholipase-Cβ2 and α-gustducin into HEK-293 cells using the lipofectamine method. Additional cotransfection of G-protein β and γ-subunits may improve the bitter tastant-induced responses. Thereafter, the transfected cells were seeded at a density of 3×10^3 cells per well into 96-well black-wall, clear-bottom microtiter plates (Greiner).
Thereafter, cells were gently washed in HBS by an automated plate washer (Denley Cellwash, Labsystenms) and transferred to the FLIPR (Molecular Devices). The FLIPR integrates an argon laser excitation source, a 96-well pipettor, and a detection system utilizing a Charged Coupled Device imaging camera. […] Fluorescence data were collected 1 min before and 10 min after stimulation. Data were collected every 6 s before and every 1 s after agonist stimulation. 50 μl of 3× concentrated agonists were delivered within 2 by the integrated 96-well pipettor to the wells containing 100 μl HBS. Agonist responses were quantified using the amplitudes of the fluorescence peaks. We averaged the responses of five wells containing cells expressing the same receptor and that received the same stimulus. Calcium traces were determined in triplicate of mock-transfected cells stimulated with the same concentration of tastant.

hTAS2R16 [1] = molecular target: T2, hTAS2R16 (Homo sapiens, UniProt Q9NYV7, R222H); experiment: FLIPR assay, heterologous expression of hTAS2R16; type: cell-based
T2 construct: gene-specific primers that span the complete coding region of the individual hTAS2R genes; first 45 amino acids of rat somatostatin type 3 receptor (cell surface-targeting signal) (N); expressed in transfected cells; host or cells: HEK293/15 cells (HEK293 stably expressing Galpha15), transient transfection
T2 sequence (Q9NYV7 1-291 R222H): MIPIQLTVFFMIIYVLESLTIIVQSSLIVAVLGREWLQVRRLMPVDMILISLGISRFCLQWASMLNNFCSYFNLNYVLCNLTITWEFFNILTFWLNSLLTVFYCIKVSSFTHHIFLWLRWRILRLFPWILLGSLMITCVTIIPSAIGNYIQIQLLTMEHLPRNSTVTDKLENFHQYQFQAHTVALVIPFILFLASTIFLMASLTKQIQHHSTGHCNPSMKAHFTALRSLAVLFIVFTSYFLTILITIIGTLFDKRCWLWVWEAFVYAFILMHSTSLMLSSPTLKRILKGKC
Excerpt: (§1) Transient transfection of TAS2Rs into HEK-293T-Gα16gustducin44 cells.

hTAS2R10 = molecular target: T3, hTAS2R10 (Homo sapiens, UniProt Q9NYW0, T156M); experiment: FLIPR assay, heterologous expression of hTAS2R10; type: cell-based
T3 construct: gene-specific primers that span the complete coding region of the individual hTAS2R genes; first 45 amino acids of rat somatostatin type 3 receptor (cell surface-targeting signal) (N); expressed in transfected cells; host or cells: HEK-293T-Gα16gustducin44 cells (alternatively HEK-293 co-transfected with phospholipase-Cβ2 and α-gustducin)
T3 sequence (Q9NYW0 1-307 T156M): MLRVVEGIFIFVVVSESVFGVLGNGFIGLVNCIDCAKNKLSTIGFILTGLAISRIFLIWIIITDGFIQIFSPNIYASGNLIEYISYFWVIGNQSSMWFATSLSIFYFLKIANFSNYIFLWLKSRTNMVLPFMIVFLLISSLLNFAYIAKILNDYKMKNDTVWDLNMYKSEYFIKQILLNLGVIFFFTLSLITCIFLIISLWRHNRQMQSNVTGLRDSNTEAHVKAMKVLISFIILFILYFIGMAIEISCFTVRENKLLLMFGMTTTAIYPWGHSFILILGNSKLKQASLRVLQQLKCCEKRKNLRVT
Excerpt: as §1

hTAS2R16 [2] = molecular target: T2, hTAS2R16; experiment: FLIPR calcium assay, hTAS2R16-expressing HEK293/15 transfectants; type: cell-based
Protocol: A fluorescence imaging plate reader (FLIPR, Molecular Devices) was used to functionally screen cell populations transiently transfected with expression vectors encoding the above-described 24 bitter receptors and to establish concentration-response curves for hTAS2R16 and hTASR10. […] For the FLIPR experiments the HEK293/15 cells were grown to 50% confluence. […] After 48 h the cells in each well were transfected using Lipofectamine 2000 and 24-30 h later were loaded with FIuo4AM (Molecular Probes). Thereafter they were stimulated with bitter compounds (SigmaAldrich, further purified by reversed-phase HPLC to >99% purity). Calcium signals were recorded simultaneously from each well at 1 Hz at 510 nm after excitation at 488 nm and the recordings were corrected for cell density. […] The calculations rest on at least four independent transfection experiments.
EC50 and threshold values obtained with hTAS2R16-expressing transfectants are shown in Table 1 below and the results are described in Example 4.

human panelists [3] = experiment: Human taste experiments: bitter thresholds and dose-response by sensory panel; type: in vivo; details: for Threshold Value Human: bitter threshold, triangle test, tap water; for EC50: bitterness intensity dose-response
Protocol: 15 experienced panelists in a sensory panel room at 22-25° C. determined bitter thresholds on three different sessions using a triangle test with tap water as solvent, according to methodology set out in J. Agric. Food Chem., 49, 231-238 (2001), or Mailgaard M et al, “Sensory Evaluation Techniques” (CRC Press LLC, New York 1999). For dose-response relations, bitter tastant concentration series were presented to 10 trained panelists in random order. The panelists ranked the samples in increasing order of intensity and, for each concentration, evaluated bitterness intensity on a scale from 0 to 5 (ref. 24). The dose-response curves of three different sessions were averaged. The intensity values between individuals and separate sessions differed by not more than 0.5 units.

human panelists [4] = experiment: Human taste adaptation experiment; type: in vivo; details: for initial bitterness score by test panel: 8 mM, 15 s; for own bitterness during prolonged stimulation (adaptation): 120 s or 180 s in the mouth
Protocol: To investigate adaptation, the 8 panelists first maintained aqueous solutions (5 ml) of phenyl-β-D-glucopyranoside (8 mM), phenyl-alpha-D-glucopyranoside (180 mM), salicin (8 mM), or helicin (8 mM) for 15 s in their oral cavities and evaluated the bitter intensity as described above. After 30 min, they kept a denatonium benzoate solution (5 ml, 0.0003 mM) for 15 s in their mouth and evaluated its bitterness. The panelists spat off the denatonium benzoate solution, took up the phenyl-β-D-glucopyranoside or the phenyl-alpha-D-glucopyranoside solutions orally for 120 s or 180 s and judged their bitterness intensity after 15, 30, 60, 120 and 180s. Thereafter, the panelists spat off these solutions and then sequentially took up salicin, helicin (5 ml, 8 mM) and denatonium benzoate (5 ml, 0.0003 mM) and evaluated bitterness intensities of these solutions after 15 s. After an additional 30 min, the first experiment was repeated. The data of three different sessions for each panelist were averaged. Intensity values between individuals and separate sessions differed by not more than ±0.5 units.

Compound | Approx. Threshold (hTAS2R38) [µM] | receptor activation (in words) (hTAS2R38) | EC50 (hTAS2R38; read-out: EC50) [µM] | Threshold (hTAS2R16 [1]; hTAS2R16) | Threshold Value Human (human panelists [3]) [mM] | further results
S=C1NCCN1 [2-Imidazolidinethione] | 10 | activated | – | – | – | –
O=c1cc(O)[nH]c(=S)[nH]1 [2-Thiobarbituric acid] | – | activated | – | – | – | reacts at (hTAS2R38): reacts at 10 mM
Cc1cc(=O)[nH]c(=S)[nH]1 [4(6)-Methyl-2-thiouracil] | 20 | activated | 180 | – | – | –
O=[N+]([O-])c1ccc(O[C@@H]2O[C@H](CO)[C@@H](O)[C@H](O)[C@H]2O)cc1 [4-Nitrophenyl-β-D-Glucoside] | – | – | – | 1 − 3 mM | – | –
O=[N+]([O-])c1ccc(O[C@@H]2O[C@H](CO)[C@@H](O)[C@H](O)[C@@H]2O)cc1 [4-Nitrophenyl-β-D-Mannoside] | – | – | – | 1 − 3 mM | – | –
O=[N+]([O-])c1ccc(S[C@@H]2O[C@H](CO)[C@@H](O)[C@H](O)[C@H]2O)cc1 [4-Nitrophenyl-β-D-Thioglucoside] | – | – | – | 1 − 5 mM | – | –
CC(=O)NC(N)=S [Acetylthiourea] | 2 | activated | 15 | – | – | –
COc1cc2c(cc1OC)[C@@]13CCN4CC5=CCO[C@H]6CC(=O)N2[C@H]1[C@H]6[C@H]5C[C@H]43 [Brucine] | – | – | – | – | – | EC50 (hTAS2R10): 60 µM; Approx. Threshold (hTAS2R10; hTAS2R10): 0.01 mM; receptor activation (in words) (hTAS2R10; hTAS2R10): activated
OC[C@H]1O[C@@H](Oc2ccccc2)[C@H](O)[C@@H](O)[C@@H]1O [Compound 1, phenyl-beta-D-glucopyranoside] | – | – | – | 0.07 ± 0.02 mM | 0.1 ± 0.05 | EC50 (hTAS2R16 [2]): 1100 µM; Threshold Value FLIPR (hTAS2R16 [2]): 0.07 ± 0.02 mM; EC50 (human panelists [3]): 700 µM; initial bitterness score by test panel (human panelists [4]): equally intensely bitter; own bitterness during prolonged stimulation (adaptation) (human panelists [4]): declined; EC50 (hTAS2R16 [1]; hTAS2R16, read-out: EC50): 1100 ± 100 µM
O=c1cc[nH]c(=S)[nH]1 [Compound 2-Thiouracil, 2-Thiouracil] | 300 | activated | ~2000 | – | – | –
O=Cc1ccccc1O[C@@H]1O[C@H](CO)[C@@H](O)[C@H](O)[C@H]1O [Compound 3, helicin] | – | – | – | 0.3 ± 0.1 mM | 0.4 ± 0.1 | EC50 (hTAS2R16 [2]): 2300 µM; Threshold Value FLIPR (hTAS2R16 [2]): 0.3 ± 0.1 mM; EC50 (human panelists [3]): 2200 µM; initial bitterness score by test panel (human panelists [4]): equally intensely bitter; bitterness after prolonged stimulation with phenyl-beta-D-glucopyranoside (cross-adaptation) (human panelists [4]; in vivo): less bitter; EC50 (hTAS2R16 [1]; hTAS2R16, read-out: EC50): 2300 ± 400 µM
OC[C@H]1O[C@@H](Oc2ccc(O)cc2)[C@H](O)[C@@H](O)[C@@H]1O [Compound 4, arbutin] | – | – | – | 0.5 ± 0.2 mM | 0.9 ± 0.3 | EC50 (hTAS2R16 [2]): 5800 µM; Threshold Value FLIPR (hTAS2R16 [2]): 0.5 ± 0.2 mM; EC50 (human panelists [3]): 5400 µM; EC50 (hTAS2R16 [1]; hTAS2R16, read-out: EC50): 5800 ± 900 µM
O=[N+]([O-])c1ccccc1O[C@@H]1O[C@H](CO)[C@@H](O)[C@H](O)[C@H]1O [Compound 5, 2-nitro-phenyl-beta-D-glucopyranoside] | – | – | – | 0.3 − 1 mM | – | Threshold Value FLIPR (hTAS2R16 [2]): 1.5 ± 0.5 mM
OC[C@H]1O[C@@H](Oc2ccc3ccccc3c2)[C@H](O)[C@@H](O)[C@@H]1O [Compound 6, naphthyl-beta-D-pyranoside] | – | – | – | – | 0.2 ± 0.1 | EC50 (hTAS2R16 [2]): 1000 µM; EC50 (human panelists [3]; Homo sapiens): 1400 µM; EC50 (hTAS2R16 [1]; hTAS2R16, read-out: EC50): 1000 ± 100 µM
COC1OC(CO)C(O)C(O)C1O [Compound 7, methyl-beta-D-lucopyranoside] | – | – | – | – | 32 ± 11 | –
N#CC(O[C@@H]1O[C@H](CO[C@@H]2O[C@H](CO)[C@@H](O)[C@H](O)[C@H]2O)[C@@H](O)[C@H](O)[C@H]1O)c1ccccc1 (stereo partly shown) [Compound 8, amygdalin] | – | – | – | – | – | EC50 (hTAS2R16 [2]): 20000 µM; EC50 (hTAS2R16 [1]): 20000 ± 3400 µM
O=c1ccc2cc(O[C@@H]3O[C@H](CO)[C@@H](O)[C@H](O)[C@H]3O)c(O)cc2o1 [Compound 9, esculin] | – | – | – | 4 ± 2 mM | 4 ± 1 | Threshold Value FLIPR (hTAS2R16 [2]): 4 ± 2 mM
OC[C@H]1O[C@@H](Oc2ccccc2)[C@H](O)[C@@H](O)[C@H]1O [Compound 10, phenyl-beta-D-galactopyranoside] | – | – | – | – | 40 ± 13 | EC50 (hTAS2R16 [2]): > 100000 µM; Threshold Value FLIPR (hTAS2R16 [2]): n.r. (No response up to 100 mM)
OCC1OC(Oc2ccccc2)C(O)C(O)C1O [Compound 11, phenyl-alpha-D-glucopyranoside] | – | – | – | – | 9 ± 3 | EC50 (hTAS2R16 [2]): > 100000 µM; Threshold Value FLIPR (hTAS2R16 [2]): n.r. (No response up to 100 mM); EC50 (human panelists [3]; Homo sapiens): 50000 µM; own bitterness during prolonged stimulation (adaptation) (human panelists [4]): desensitized strongly; cross-adaptation with all tested beta-D-glucopyranosides (human panelists [4]; in vivo): failed to cross-adapt
CCNC(N)=S [N-Ethylthiourea] | 30 | activated | 260 | – | – | –
NC(=S)Nc1ccccc1 [Phenylthiocarbamid] | 0.3 | activated | – | – | – | EC50 (hTAS2R38): 2 µM
CN(C)C(=S)N(C)C [Tetramethylthiourea] | 10 to 30 | activated | 100 | – | – | –
CC(=S)Nc1ccccc1 [Thioacetanilide] | 3 | activated | 18 | – | – | –
N,N-dimethylthioformamide [N,N-Dimethyl- thioformamide] | 10 | activated | 55 | – | – | –
N-Methylthiourea | 100 | activated | 600 to 800 | – | – | –
Thioacetamide | 100 | activated | – | – | – | –
